The source of these data is ChEMBL document CHEMBL5532655, “Discovery of (R)-4-(8-methoxy-2-methyl-1-(1-phenylethy)-1H-imidazo[4,5-c]quinnolin-7-yl)-3,5-dimethylisoxazole as a potent and selective BET inhibitor for treatment of acute myeloid leukemia (AML) guided by FEP calculation” (Eur J Med Chem, 2024).

The half-life is how long it takes for the measured level to halve. Usually MRT inf stands for a mean duration of stay, worked out from the concentration-time curve. A word on the AUC(0-t): it is the area under the concentration-time curve up to a stated or last time point. A low value points to low exposure. One may read the ΔTm as the shift of the melting midpoint relative to a reference.

The subject of data set [1] is MV4-11. Nature of the data set: Induction of cell cycle arrest in human MV4-11 cells assessed as accumulation of cells at G0/G1 phase at 1.25 uM incubated for 24 hrs by propidium iodide staining flow cytometric analysis (reference value: 37.64 %). Format: functional. On the technique in general: In flow cytometry, cells or beads pass a laser one at a time.
For data set [2], the system named is MV4-11. Kind of data set: Induction of apoptosis in human MV4-11 cells assessed as late apoptotic cells at 10 uM incubated for 24 hrs by annexin V-FITC/PI staining based flow cytometric analysis (reference value: 0.04 %). Format: functional.
Data set [3] can be described thus: Half life in Sprague-Dawley rat at 10 mg/kg,po administration measured upto 24 hrs by LC-MS/MS analysis. Format: ADME, organism-based. Conditions: in vivo.
For data set [4], the system named is MV4-11. Nature of the data set: Induction of apoptosis in human MV4-11 cells assessed as viable cells at 1.25 uM incubated for 24 hrs by annexin V-FITC/PI staining based flow cytometric analysis (reference value: 97%). Conditions: Homo sapiens, MV4-11, read-out: Activity. Format: functional.
For data set [5], the system named is MV4-11. Kind of data set: Induction of cell cycle arrest in human MV4-11 cells assessed as accumulation of cells at G0/G1 phase at 5 uM incubated for 24 hrs by propidium iodide staining flow cytometric analysis (reference value: 37.64 %). The class given is functional.
In data set [6] the test system is MV4-11. Kind of data set: Induction of cell cycle arrest in human MV4-11 cells assessed as accumulation of cells at G0/G1 phase at 0.3125 uM incubated for 24 hrs by propidium iodide staining flow cytometric analysis (reference value: 37.64 %). The class given is functional.
Data set [7] is described as follows: MRTinfinity in Sprague-Dawley rat at 1 mg/kg,iv administration measured upto 24 hrs by LC-MS/MS analysis. Format: ADME, organism-based. Conditions: in vivo.
Data set [8] has as its system MV4-11. Nature of the data set: Induction of cell cycle arrest in human MV4-11 cells assessed as accumulation of cells at S phase at 2.5 uM incubated for 24 hrs by propidium iodide staining flow cytometric analysis (reference value: 43.94 %). The class given is functional.
For data set [9], the system named is MV4-11. Kind of data set: Induction of apoptosis in human MV4-11 cells assessed as viable cells at 0.625 uM incubated for 24 hrs by annexin V-FITC/PI staining based flow cytometric analysis (reference value: 97%). The class given is functional. Conditions: Homo sapiens, MV4-11, read-out: Activity.
Data set [10] relates to MV4-11. Nature of the data set: Induction of apoptosis in human MV4-11 cells assessed as late apoptotic cells at 5 uM incubated for 24 hrs by annexin V-FITC/PI staining based flow cytometric analysis (reference value: 0.04 %). The class given is functional.
Data set [11] in a line: Oral bioavailability in Sprague-Dawley rat at 10 mg/kg measured upto 24 hrs by LC-MS/MS analysis. The class given is ADME, organism-based. Particulars: in vivo.
Data set [12] has as its system MV4-11. Nature of the data set: Induction of cell cycle arrest in human MV4-11 cells assessed as accumulation of cells at S phase at 5 uM incubated for 24 hrs by propidium iodide staining flow cytometric analysis (reference value: 43.94 %). The class given is functional.
Data set [13] has as its system MV4-11. Nature of the data set: Induction of apoptosis in human MV4-11 cells assessed as upregulation of cleaved PARP expression at 500 nM hrs by Western blotting analysis. Format: functional, cell-based. Particulars: TDE = time-dependent effect. For orientation: Immunoblotting shows a protein as a band on a membrane.
The subject of data set [14] is MV4-11. Nature of the data set: Induction of cell cycle arrest in human MV4-11 cells assessed as accumulation of cells at S phase at 0.625 uM incubated for 24 hrs by propidium iodide staining flow cytometric analysis (reference value: 43.94 %). The class given is functional.
Data set [15] concerns MV4-11. Kind of data set: Induction of apoptosis in human MV4-11 cells assessed as early apoptotic cells at 2.5 uM incubated for 24 hrs by annexin V-FITC/PI staining based flow cytometric analysis (reference value: 0%). The class given is functional.
Data set [16] deals with MV4-11. Kind of data set: Induction of cell cycle arrest in human MV4-11 cells assessed as accumulation of cells at G2/M phase at 1.25 uM incubated for 24 hrs by propidium iodide staining flow cytometric analysis (reference value: 18 %). Format: functional.
Data set [17] has as its system MV4-11. Kind of data set: Induction of apoptosis in human MV4-11 cells assessed as late apoptotic cells at 0.625 uM incubated for 24 hrs by annexin V-FITC/PI staining based flow cytometric analysis (reference value: 0.04 %). Format: functional.
The subject of data set [18] is MV4-11. Kind of data set: Induction of apoptosis in human MV4-11 cells assessed as late apoptotic cells at 2.5 uM incubated for 24 hrs by annexin V-FITC/PI staining based flow cytometric analysis (reference value: 0.04 %). Format: functional.
In data set [19] the test system is MV4-11. Kind of data set: Induction of apoptosis in human MV4-11 cells assessed as necrotic cells at 1.25 uM incubated for 24 hrs by annexin V-FITC/PI staining based flow cytometric analysis (reference value: 2.35 %). The class given is functional.
In data set [20] the test system is MV4-11. Kind of data set: Induction of apoptosis in human MV4-11 cells assessed as early apoptotic cells at 1.25 uM incubated for 24 hrs by annexin V-FITC/PI staining based flow cytometric analysis (reference value: 0%). The class given is functional.
Data set [21] deals with MV4-11. Nature of the data set: Induction of apoptosis in human MV4-11 cells assessed as upregulation of cleaved PARP expression at 0.3125 to 2.5 uM incubated for 48 hrs by Western blotting analysis. Format: functional, cell-based. Particulars: dose 0.3125-2.5 µM.
Data set [22] concerns MV4-11. Nature of the data set: Induction of cell cycle arrest in human MV4-11 cells assessed as accumulation of cells at G2/M phase at 2.5 uM incubated for 24 hrs by propidium iodide staining flow cytometric analysis (reference value: 18 %). The class given is functional.
Data set [23] has as its system MV4-11. Kind of data set: Induction of apoptosis in human MV4-11 cells assessed as early apoptotic cells at 0.625 uM incubated for 24 hrs by annexin V-FITC/PI staining based flow cytometric analysis (reference value: 0%). The class given is functional.
The subject of data set [24] is MV4-11. Nature of the data set: Induction of apoptosis in human MV4-11 cells assessed as necrotic cells at 10 uM incubated for 24 hrs by annexin V-FITC/PI staining based flow cytometric analysis (reference value: 2.35 %). Format: functional.
Data set [25] in a line: AUC (0-t) in Sprague-Dawley rat at 1 mg/kg,iv administration measured upto 24 hrs by LC-MS/MS analysis. The class given is ADME, organism-based. Particulars: in vivo.
For data set [26], the system named is MV4-11. Kind of data set: Antitumor activity against human MV4-11 cells xenografted in BALB/c mouse assessed as tumor growth inhibition at 50 mg/kg administration relative to control. Format: functional. Conditions: read-out: TGI. On the technique in general: In xenograft studies the graft and the host belong to different species.
For data set [27], the system named is MV4-11. Kind of data set: Induction of apoptosis in human MV4-11 cells assessed as upregulation of PARP expression at 500 nM hrs by Western blotting analysis. Particulars: TDE = time-dependent effect. Format: functional, cell-based.
The subject of data set [28] is MV4-11. Nature of the data set: Antitumor activity against human MV4-11 cells xenografted in BALB/c mouse assessed as tumor growth inhibition at 30 mg/kg administration relative to control. Format: functional. Conditions: read-out: TGI.
The subject of data set [29] is MV4-11. Kind of data set: Induction of apoptosis in human MV4-11 cells assessed as downregulation of c-Myc expression at 500 nM hrs by Western blotting analysis. Particulars: TDE = time-dependent effect. The class given is functional, cell-based.
For data set [30], the system named is MV4-11. Kind of data set: Induction of apoptosis in human MV4-11 cells assessed as viable cells at 5 uM incubated for 24 hrs by annexin V-FITC/PI staining based flow cytometric analysis (reference value: 97%). Format: functional. Particulars: Homo sapiens, MV4-11, read-out: Activity.
Data set [31] relates to MV4-11. Kind of data set: Induction of cell cycle arrest in human MV4-11 cells assessed as accumulation of cells at G2/M phase at 5 uM incubated for 24 hrs by propidium iodide staining flow cytometric analysis (reference value: 18 %). The class given is functional.
For data set [32], the system named is MV4-11. Nature of the data set: Induction of cell cycle arrest in human MV4-11 cells assessed as accumulation of cells at G2/M phase at 0.625 uM incubated for 24 hrs by propidium iodide staining flow cytometric analysis (reference value: 18 %). Format: functional.
A short description of data set [33]: Half life in Sprague-Dawley rat at 1 mg/kg,iv administration measured upto 24 hrs by LC-MS/MS analysis. The class given is ADME, organism-based. Conditions: in vivo.
Data set [34] deals with Bromodomain testis-specific protein (Homo sapiens) (UniProt Q58F21). Particulars: time 30.0 min.
Data set [35] addresses Bromodomain-containing protein 2 (Homo sapiens) (UniProt P25440). Particulars: time 30.0 min.

Calls of active or inactive are those of the source. The rule behind the calls is not given here.

Chain of Bromodomain-containing protein 2 (Homo sapiens) (P25440 whole entry, looked up): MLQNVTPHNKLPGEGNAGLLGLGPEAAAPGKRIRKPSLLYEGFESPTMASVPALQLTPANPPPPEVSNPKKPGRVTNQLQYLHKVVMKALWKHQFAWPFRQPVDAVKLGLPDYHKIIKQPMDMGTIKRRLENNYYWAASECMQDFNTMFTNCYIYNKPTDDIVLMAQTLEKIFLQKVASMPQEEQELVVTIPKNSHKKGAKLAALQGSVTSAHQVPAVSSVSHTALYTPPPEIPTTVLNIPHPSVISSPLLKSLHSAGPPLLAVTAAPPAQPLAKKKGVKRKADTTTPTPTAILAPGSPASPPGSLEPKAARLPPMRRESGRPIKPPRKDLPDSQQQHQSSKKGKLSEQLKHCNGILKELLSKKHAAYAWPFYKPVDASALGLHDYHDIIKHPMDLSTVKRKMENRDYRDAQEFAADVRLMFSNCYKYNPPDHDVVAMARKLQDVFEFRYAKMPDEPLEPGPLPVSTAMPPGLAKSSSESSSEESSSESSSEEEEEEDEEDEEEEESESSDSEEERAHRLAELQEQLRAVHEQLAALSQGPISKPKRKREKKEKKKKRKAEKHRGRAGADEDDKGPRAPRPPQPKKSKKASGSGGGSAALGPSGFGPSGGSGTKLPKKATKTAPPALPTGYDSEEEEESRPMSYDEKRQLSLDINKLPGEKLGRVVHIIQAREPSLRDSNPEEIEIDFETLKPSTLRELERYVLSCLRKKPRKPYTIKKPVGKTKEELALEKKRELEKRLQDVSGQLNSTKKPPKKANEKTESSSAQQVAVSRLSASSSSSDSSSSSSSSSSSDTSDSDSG

As for `COc1cc2c(cc1-c1c(C)noc1C)ncc1nc(C)n([C@H](C)c3ccccc3)c12`, the Activity in the data set with MV4-11 [1] was determined as 71.52%; with MV4-11 [2], 11.62%; in the data set on MV4-11 [5] it was 78.57%; in the data set with MV4-11 [6], 48.98%; with MV4-11 [8] it was 20.35%; in the data set with MV4-11 [10], 12.62%. Further, the Activity is 17.41% in the data set with MV4-11 [12]; “Tde” in the data set on MV4-11 [13]; 44.55% with MV4-11 [14]; 8.72% in the data set with MV4-11 [15]; 5.16% in the data set with MV4-11 [16]; 4.8% in the data set on MV4-11 [17]. In addition, the Activity in the data set on MV4-11 [18] is 9.68%; in the data set on MV4-11 [19], 8%; in the data set with MV4-11 [20], 6.62%; in the data set on MV4-11 [22], 7.33%; in the data set with MV4-11 [23], 6.87%; in the data set with MV4-11 [24] it was 8%. The Activity result in the data set on MV4-11 [27] was “Tde”; in the data set on MV4-11 [29] it was “Tde”; in the data set on MV4-11 [31], 3.63%; in the data set with MV4-11 [32], 16.18%. Further, the values for the half-life in data set [3] and in [33] were 159 min and 42 min, respectively. Further, the viability at 1.25 µM in the data set on MV4-11 [4] turned out to be 83.1%. In data set [7], the mean residence time MRT inf was 50.4 min. The viability at 0.625 µM with MV4-11 [9] came to 68.2%. Moreover, the bioavailability in data set [11] turned out to be 114%. In the data set on MV4-11 [21], the result was Active. Also, in data set [25], the area under the curve AUC(0-t) at 24 h is 1380 ng·h/mL. Further, the inhibition in vivo at 50 mg/kg in the data set on MV4-11 [26] was determined as 70.4%. In the data set on MV4-11 [28], the inhibition in vivo at 30 mg/kg stood at 55.1%. For the same compound, the viability at 5 µM in the data set with MV4-11 [30] turned out to be 78.4%.

In the case of `COc1cc2c(cc1-c1c(C)n[nH]c1C)ncc1nc(C)n([C@H](C)c3ccccc3)c12`, the shift in melting temperature (ΔTm) in data set [34] and in data set [35] was 5 °C each time.
